# Measured values as given in publication PMC7503500, “A Structure-Activity Relationship Comparison of Imidazodiazepines Binding at Kappa, Mu, and Delta Opioid Receptors and the GABAA Receptor” (Molecules, 2020).
# pKi: −log10 of the molar value.
# Tests used:
# κ opioid receptor (KOR) = κ opioid receptor (KOR) (Homo sapiens, UniProt P41145); experiment: Radioligand competition binding, KOR ([3H]-U69593), HEK293 cell homogenates
# [1] = design: method as in PMID 32511908; settings: cited from earlier work
# µ opioid receptor (MOR) = µ opioid receptor (MOR) (Homo sapiens, UniProt P35372); experiment: Radioligand competition binding, MOR ([3H]-DAMGO), HEK293 cell homogenates; settings: at 10,000 nM; [3H]-DAMGO
# δ opioid receptor (DOR) = δ opioid receptor (DOR) (Homo sapiens, UniProt P41143); experiment: Radioligand competition binding, DOR ([3H]-DADLE), HEK293 cell homogenates; settings: at 10,000 nM
# activated microglia = test system: activated microglia; design: method as in PMID 32511908; settings: reversed by KOR antagonist norbinaltorphimine; cited from earlier work
# [2] = test system: synaptic benzodiazepine-sensitive receptors (BZR), GABAAR; experiment: 3H-flunitrazepam binding, rat brain homogenate; settings: at 10,000 nM
# [3] = design: method as in PMID 32511908; settings: both phases; cited from earlier work
structure (smiles),measurement,setting,value
CCc1noc(-c2ncn3c2[C@@H](C)N=C(c2ccccc2F)c2cc(C4CC4)ccc2-3)n1 [GL-IV-03],KOR % (percent inhibition),"κ opioid receptor (KOR); at 10,000 nM, [3H]-U69593",91%
same,pKi,"κ opioid receptor (KOR); read-out: KOR (Ki), [3H]-U69593, HEK293 homogenates",6.63
same,Impairment of sensorimotor coordination,[1],without inducing impairment of sensorimotor coordination
same,MOR % (percent inhibition),µ opioid receptor (MOR),25%
same,DOR % (percent inhibition),δ opioid receptor (DOR),67%
same,Production of nitric oxide (NO) by activated microglia,activated microglia,reduced the production of nitric oxide (NO)
same,BZR % (percent inhibition),[2],65%
same,Agitation response in the formalin nociception test,[3],alleviated the agitation response in both phases
